Activity calls are given as the source filed them. No cut-off for these calls is given here.
Legend:
[1] = biological target: CDK18/Cyclin Y (Homo sapiens) (UniProt Q07002+Q8ND76); assay: Inhibition of CDK18/cyclin Y (unknown origin) at 200 nM preincubated for 10 mins followed by substrate addition and measured after 60 mins in presence of ATP by ADP-Glo reagent based assay relative to control; assay type: protein-complex assay; conditions: time 70.0 min
[2] = Induction of apoptosis in human Osimertinib-resistant NCI-H1975 cell assessed as early apoptotic cells at 2000 nM measured after 16 hrs by Annexin V-FITC and PI staining based analysis (reference value: 1.78%); assay type: functional
[3] = Induction of apoptosis in human Osimertinib-resistant NCI-H1975 cell assessed as early apoptotic cells at 125 nM measured after 16 hrs by Annexin V-FITC and PI staining based analysis (Rvb =1.78%); assay type: functional
[4] = Toxicity in ICR mouse assessed as morphological changes in heart at 1000 mg/kg, po measured after 9 days by H and E staining based analysis; assay type: organism-based; conditions: in vivo, 216 h, time 9 day
[5] = biological target: Cyclin-dependent kinase 1/cyclin B1 (Homo sapiens) (UniProt P06493+P14635); assay: Inhibition of CDK1/Cyclin B1 (unknown origin) at 200 nM preincubated for 10 mins followed by substrate addition and measured after 60 mins in presence of ATP by ADP-Glo reagent based assay relative to control; assay type: protein-complex assay; conditions: time 70.0 min
Cyclin-dependent kinase 1/cyclin B1 (Homo sapiens), sequence (P06493 whole entry, looked up): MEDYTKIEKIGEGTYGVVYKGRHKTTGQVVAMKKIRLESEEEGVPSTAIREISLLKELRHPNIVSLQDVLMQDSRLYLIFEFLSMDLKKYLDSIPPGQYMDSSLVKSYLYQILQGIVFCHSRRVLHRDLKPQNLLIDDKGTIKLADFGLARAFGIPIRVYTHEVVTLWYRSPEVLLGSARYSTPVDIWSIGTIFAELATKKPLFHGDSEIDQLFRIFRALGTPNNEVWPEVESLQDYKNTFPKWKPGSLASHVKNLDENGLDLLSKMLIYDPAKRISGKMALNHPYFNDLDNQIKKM
Cyclin-dependent kinase 1/cyclin B1 (Homo sapiens), sequence (P14635 whole entry, looked up): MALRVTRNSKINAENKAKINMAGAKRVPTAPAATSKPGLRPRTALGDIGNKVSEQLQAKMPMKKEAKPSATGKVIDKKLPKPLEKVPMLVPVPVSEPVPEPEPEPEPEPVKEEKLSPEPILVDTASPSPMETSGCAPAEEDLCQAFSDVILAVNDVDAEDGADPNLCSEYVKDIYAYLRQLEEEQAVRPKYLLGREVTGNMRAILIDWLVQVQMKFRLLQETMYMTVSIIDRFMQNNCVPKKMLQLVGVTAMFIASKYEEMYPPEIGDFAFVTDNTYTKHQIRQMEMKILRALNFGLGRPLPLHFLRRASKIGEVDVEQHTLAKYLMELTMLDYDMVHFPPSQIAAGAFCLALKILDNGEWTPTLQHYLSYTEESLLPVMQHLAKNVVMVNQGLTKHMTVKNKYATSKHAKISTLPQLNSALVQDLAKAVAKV

[6] = Induction of apoptosis in human Osimertinib-resistant NCI-H1975 cell assessed as necrotic cells at 125 nM measured after 16 hrs in presence of osimertinib by Annexin V-FITC and PI staining based analysis (reference value: 0.50%); assay type: functional
[7] = biological target: CDK9/cyclin T1 (Homo sapiens) (UniProt O60563+P50750); assay: Inhibition of CDK9/cyclin T1 (unknown origin) at 200 nM preincubated for 10 mins followed by substrate addition and measured after 60 mins in presence of ATP by ADP-Glo reagent based assay relative to control; assay type: protein-complex assay; conditions: time 70.0 min
[8] = biological target: CDK6/cyclin D1 (Homo sapiens) (UniProt P24385+Q00534); assay: Inhibition of CDK6/cyclin D1 (unknown origin) at 200 nM preincubated for 10 mins followed by substrate addition and measured after 60 mins in presence of ATP by ADP-Glo reagent based assay relative to control; assay type: protein-complex assay; conditions: time 70.0 min
[9] = Antitumor activity against patient derived #0416 lung cancer organoid assessed as inhibition of growth measured after 4 days; assay type: functional, tissue-based; conditions: Homo sapiens, 96 h
[10] = biological target: Cyclin-dependent kinase 13/Cyclin-K (Homo sapiens) (UniProt Q14004+O75909); assay: Inhibition of CDK13/cyclin K (unknown origin) at 200 nM preincubated for 10 mins followed by substrate addition and measured after 60 mins in presence of ATP by ADP-Glo reagent based assay relative to control; assay type: protein-complex assay; conditions: time 70.0 min
Cyclin-dependent kinase 13/Cyclin-K (Homo sapiens), sequence (O75909 whole entry, looked up): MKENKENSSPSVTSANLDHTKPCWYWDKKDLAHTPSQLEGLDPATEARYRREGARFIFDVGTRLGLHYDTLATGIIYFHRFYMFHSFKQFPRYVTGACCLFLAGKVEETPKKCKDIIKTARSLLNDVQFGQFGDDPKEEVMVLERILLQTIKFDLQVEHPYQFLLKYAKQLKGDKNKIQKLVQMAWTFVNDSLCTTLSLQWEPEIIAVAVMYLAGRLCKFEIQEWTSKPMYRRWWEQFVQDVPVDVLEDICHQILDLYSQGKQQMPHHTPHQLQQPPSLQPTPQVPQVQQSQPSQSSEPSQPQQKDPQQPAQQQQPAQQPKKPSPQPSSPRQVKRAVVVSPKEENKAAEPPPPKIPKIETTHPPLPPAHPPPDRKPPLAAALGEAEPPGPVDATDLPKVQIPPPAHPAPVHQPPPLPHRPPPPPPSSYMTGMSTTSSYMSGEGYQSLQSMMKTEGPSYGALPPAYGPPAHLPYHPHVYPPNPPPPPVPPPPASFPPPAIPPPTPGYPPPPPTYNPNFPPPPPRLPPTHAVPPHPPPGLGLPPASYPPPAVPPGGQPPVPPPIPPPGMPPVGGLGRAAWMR
Cyclin-dependent kinase 13/Cyclin-K (Homo sapiens), sequence (Q14004 whole entry, looked up): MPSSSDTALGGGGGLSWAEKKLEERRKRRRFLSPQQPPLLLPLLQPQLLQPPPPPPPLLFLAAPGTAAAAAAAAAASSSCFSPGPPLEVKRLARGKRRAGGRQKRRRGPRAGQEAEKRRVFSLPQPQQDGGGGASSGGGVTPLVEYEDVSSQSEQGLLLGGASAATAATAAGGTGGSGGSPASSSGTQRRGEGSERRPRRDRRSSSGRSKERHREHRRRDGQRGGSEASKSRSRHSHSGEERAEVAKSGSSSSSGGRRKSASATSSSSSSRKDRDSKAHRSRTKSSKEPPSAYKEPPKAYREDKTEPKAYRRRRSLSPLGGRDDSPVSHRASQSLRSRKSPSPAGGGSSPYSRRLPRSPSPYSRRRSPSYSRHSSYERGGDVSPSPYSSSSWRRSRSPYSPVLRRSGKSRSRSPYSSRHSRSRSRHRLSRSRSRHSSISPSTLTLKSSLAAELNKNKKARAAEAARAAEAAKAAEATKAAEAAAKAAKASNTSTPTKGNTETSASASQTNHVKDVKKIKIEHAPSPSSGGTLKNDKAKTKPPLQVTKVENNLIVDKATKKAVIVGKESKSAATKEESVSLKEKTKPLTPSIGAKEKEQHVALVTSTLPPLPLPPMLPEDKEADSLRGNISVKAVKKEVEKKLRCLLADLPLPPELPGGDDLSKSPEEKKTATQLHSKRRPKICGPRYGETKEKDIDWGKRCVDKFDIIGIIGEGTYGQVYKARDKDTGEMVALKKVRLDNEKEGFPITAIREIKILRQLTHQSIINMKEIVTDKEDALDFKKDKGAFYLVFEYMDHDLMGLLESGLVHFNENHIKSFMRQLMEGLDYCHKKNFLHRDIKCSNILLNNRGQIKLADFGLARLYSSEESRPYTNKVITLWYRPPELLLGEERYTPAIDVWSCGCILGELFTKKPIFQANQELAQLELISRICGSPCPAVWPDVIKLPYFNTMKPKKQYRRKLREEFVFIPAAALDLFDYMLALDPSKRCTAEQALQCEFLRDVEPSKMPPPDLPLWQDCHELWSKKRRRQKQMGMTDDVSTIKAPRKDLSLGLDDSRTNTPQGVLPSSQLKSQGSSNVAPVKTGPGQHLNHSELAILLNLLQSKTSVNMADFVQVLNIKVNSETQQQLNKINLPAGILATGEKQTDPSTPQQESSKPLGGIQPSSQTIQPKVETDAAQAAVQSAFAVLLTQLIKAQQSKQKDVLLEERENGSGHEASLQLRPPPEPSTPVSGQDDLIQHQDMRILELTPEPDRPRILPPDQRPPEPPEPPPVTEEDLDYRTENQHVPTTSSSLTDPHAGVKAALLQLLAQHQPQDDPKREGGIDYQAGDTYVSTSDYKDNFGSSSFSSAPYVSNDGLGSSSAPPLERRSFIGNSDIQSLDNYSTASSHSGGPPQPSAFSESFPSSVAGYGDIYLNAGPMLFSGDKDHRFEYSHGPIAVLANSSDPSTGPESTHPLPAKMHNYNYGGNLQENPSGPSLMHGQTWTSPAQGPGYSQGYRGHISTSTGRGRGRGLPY

[11] = biological target: Cyclin-dependent kinase 9 (Homo sapiens) (UniProt P50750); assay: Inhibition of CDK9 in human Osimertinib-resistant NCI-H1975 cell assessed as suppression of p-RNAP II phosphorylation at Ser2 residue incubated for 8 hrs by Western blot analysis; assay type: cell-based; conditions: dose 0.05-1 µM
Cyclin-dependent kinase 9 (Homo sapiens), sequence (P50750 whole entry): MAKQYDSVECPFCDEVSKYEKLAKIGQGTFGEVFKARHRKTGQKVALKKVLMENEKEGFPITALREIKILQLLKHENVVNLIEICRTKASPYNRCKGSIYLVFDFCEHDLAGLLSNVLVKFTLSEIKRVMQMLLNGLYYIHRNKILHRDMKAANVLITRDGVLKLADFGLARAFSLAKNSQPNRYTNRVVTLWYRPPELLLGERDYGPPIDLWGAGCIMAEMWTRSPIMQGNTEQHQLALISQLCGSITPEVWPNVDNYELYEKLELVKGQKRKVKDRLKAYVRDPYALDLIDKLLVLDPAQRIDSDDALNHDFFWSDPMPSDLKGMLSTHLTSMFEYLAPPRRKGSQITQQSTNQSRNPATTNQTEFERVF

[12] = test system: NCI-H1975; assay: Downregulation of cleaved PARP level in human Osimertinib-resistant NCI-H1975 cell at 125 nM measured after 16 hrs in presence of osimertinib by Western blot analysis; assay type: functional, cell-based
[13] = Induction of apoptosis in human Osimertinib-resistant NCI-H1975 cell assessed as viable cells at 2000 nM measured after 16 hrs by Annexin V-FITC and PI staining based analysis (reference value: 94.9%); assay type: functional; conditions: read-out: Activity
[14] = test system: NCI-H596; assay: Antiproliferative activity against human NCI-H596 cells incubated for 72 hrs by MTT assay; assay type: functional, cell-based; conditions: NCI-H596, 72 h
[15] = test system: NCI-H1975; assay: Downregulation of Bcl-2 level in human Osimertinib-resistant NCI-H1975 cell at 125 nM measured after 16 hrs in presence of osimertinib by Western blot analysis; assay type: functional, cell-based
[16] = test system: NCI-H1975; assay: Downregulation of Mcl-1 mRNA expression in human Osimertinib-resistant NCI-H1975 cell at 0.1 to 1.0 uM measured after 8 hrs by qPCR analysis; assay type: functional, cell-based; conditions: dose 0.1-1 µM
[17] = Induction of apoptosis in human Osimertinib-resistant NCI-H1975 cell assessed as late apoptotic cells at 125 nM measured after 16 hrs in presence of osimertinib by Annexin V-FITC and PI staining based analysis (Rvb =2.84%); assay type: functional
[18] = Induction of apoptosis in human Osimertinib-resistant NCI-H1975 cell assessed as late apoptotic cells at 125 nM measured after 16 hrs by Annexin V-FITC and PI staining based analysis (Rvb =2.84%); assay type: functional
[19] = Induction of apoptosis in human Osimertinib-resistant NCI-H1975 cell assessed as late apoptotic cells at 500 nM measured after 16 hrs by Annexin V-FITC and PI staining based analysis (reference value: 2.84%); assay type: functional
[20] = test system: NCI-H1975; assay: Downregulation of Bcl-2 level in human Osimertinib-resistant NCI-H1975 cell measured after 16 hrs by Western blot analysis; assay type: functional, cell-based; conditions: dose 125-2000 nM
[21] = biological target: CYP3A4 (Homo sapiens, UniProt P08684); assay: Inhibition of CYP3A4 in human liver microsomes using midazolam as substrate at 10 uM incubated for 5 mins in presence of NADPH by LC-MS/MS analysis relative to control; assay type: ADME, Microsome; conditions: probe midazolam
[22] = Toxicity in ICR mouse assessed as morphological changes in spleen at 1000 mg/kg, po measured after 9 days by H and E staining based analysis; assay type: organism-based; conditions: in vivo, 216 h, time 9 day
[23] = biological target: Cyclin-dependent kinase 5/CDK5 activator 1 (Homo sapiens) (UniProt Q00535+Q15078); assay: Inhibition of CDK5/p35NCK (unknown origin) at 200 nM preincubated for 10 mins followed by substrate addition and measured after 60 mins in presence of ATP by ADP-Glo reagent based assay relative to control; assay type: protein-complex assay; conditions: time 70.0 min
Cyclin-dependent kinase 5/CDK5 activator 1 (Homo sapiens), sequence (Q00535 whole entry): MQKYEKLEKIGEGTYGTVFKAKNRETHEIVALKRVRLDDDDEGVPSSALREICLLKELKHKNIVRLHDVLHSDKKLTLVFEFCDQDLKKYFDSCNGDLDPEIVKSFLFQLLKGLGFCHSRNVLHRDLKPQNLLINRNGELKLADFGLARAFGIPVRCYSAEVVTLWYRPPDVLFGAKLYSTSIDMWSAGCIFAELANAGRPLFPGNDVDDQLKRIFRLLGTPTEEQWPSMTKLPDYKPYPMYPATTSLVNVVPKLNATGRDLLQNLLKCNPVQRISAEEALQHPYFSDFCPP
Cyclin-dependent kinase 5/CDK5 activator 1 (Homo sapiens), sequence (Q15078 99-307 partner limits assumed): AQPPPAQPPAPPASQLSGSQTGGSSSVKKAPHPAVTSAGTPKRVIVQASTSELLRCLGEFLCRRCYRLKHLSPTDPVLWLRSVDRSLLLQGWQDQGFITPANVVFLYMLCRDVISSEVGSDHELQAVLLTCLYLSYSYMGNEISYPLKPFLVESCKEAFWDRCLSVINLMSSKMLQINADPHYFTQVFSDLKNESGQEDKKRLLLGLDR

[24] = Induction of apoptosis in human Osimertinib-resistant NCI-H1975 cell assessed as necrotic cells at 500 nM measured after 16 hrs by Annexin V-FITC and PI staining based analysis (reference value: 0.50%); assay type: functional
[25] = biological target: Glycogen synthase kinase-3 beta (Homo sapiens) (UniProt P49841); assay: Inhibition of GSK3beta (unknown origin) at 500 nM preincubated for 10 mins followed by substrate addition and measured after 60 mins in presence of ATP by ADP-Glo reagent based assay relative to control; conditions: time 70.0 min
Glycogen synthase kinase-3 beta (Homo sapiens), sequence (P49841 whole entry, looked up): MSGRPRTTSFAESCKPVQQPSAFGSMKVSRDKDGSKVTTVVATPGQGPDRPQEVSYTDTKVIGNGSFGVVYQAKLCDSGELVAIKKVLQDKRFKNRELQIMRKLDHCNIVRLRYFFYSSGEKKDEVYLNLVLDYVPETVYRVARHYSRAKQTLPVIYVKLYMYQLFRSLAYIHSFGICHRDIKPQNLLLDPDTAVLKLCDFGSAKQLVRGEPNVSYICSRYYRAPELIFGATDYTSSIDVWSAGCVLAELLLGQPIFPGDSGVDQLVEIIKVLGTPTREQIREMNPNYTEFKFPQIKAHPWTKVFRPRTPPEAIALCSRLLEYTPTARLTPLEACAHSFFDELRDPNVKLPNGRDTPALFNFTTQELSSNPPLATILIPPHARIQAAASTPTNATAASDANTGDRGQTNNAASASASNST

[26] = test system: NCI-H1975; assay: Downregulation of Mcl-1 level in human Osimertinib-resistant NCI-H1975 cell at 500 nM measured after 2 hrs by Western blotting analysis; assay type: functional, cell-based
[27] = Toxicity in ICR mouse assessed as effect on body weight loss at 1000 mg/kg, po measured for 8 to 9 days; assay type: organism-based; conditions: in vivo, time 8-9 day
[28] = biological target: Dual specificity protein kinase CLK3 (Homo sapiens) (UniProt P49761); assay: Inhibition of CLK3 (unknown origin) at 100 nM preincubated for 10 mins followed by substrate addition and measured after 60 mins in presence of ATP by ADP-Glo reagent based assay relative to control; conditions: time 70.0 min
Dual specificity protein kinase CLK3 (Homo sapiens), sequence (P49761 whole entry, looked up): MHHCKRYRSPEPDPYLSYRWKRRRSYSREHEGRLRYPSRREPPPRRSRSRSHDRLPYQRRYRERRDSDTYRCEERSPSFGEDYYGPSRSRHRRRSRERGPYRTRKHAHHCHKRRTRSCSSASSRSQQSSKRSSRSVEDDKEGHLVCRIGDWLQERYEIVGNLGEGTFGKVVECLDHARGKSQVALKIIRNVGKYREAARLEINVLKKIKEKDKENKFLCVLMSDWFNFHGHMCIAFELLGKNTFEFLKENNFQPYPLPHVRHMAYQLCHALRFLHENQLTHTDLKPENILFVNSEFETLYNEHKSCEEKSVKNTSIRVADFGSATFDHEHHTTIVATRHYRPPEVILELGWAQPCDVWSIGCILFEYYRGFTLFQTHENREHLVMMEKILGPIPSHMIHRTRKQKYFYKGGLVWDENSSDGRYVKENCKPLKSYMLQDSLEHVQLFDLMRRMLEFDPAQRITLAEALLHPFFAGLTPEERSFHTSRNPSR

[29] = Antiproliferative activity against 3D-cultured human Osimertinib-resistant NCI-H1975 cell incubated for 72 hrs by MTT assay; assay type: functional, cell-based; conditions: NCI-H1975, 72 h

inhibition [1]: 12%
inhibition [5]: 33%
inhibition [7]: 99.3%
inhibition [8]: 29.3%
inhibition [10]: 46.7%
inhibition [11]: Dose-Dependent Effect
IC50 [14]: 332 nM
inhibition at 5 min, 10 µM [21]: 27.5%
inhibition [23]: 16.3%
inhibition [25]: 93.9%
inhibition [28]: 5.7%
Structure (SMILES): O=C(NCCN1CCOCC1)c1ccc2cc1OCCCCCCOc1cc(ccc1F)-c1nc(ncc1F)N2
Activity [2]: 18.9%
Activity [3]: 4.7%
Activity [4]: Non-Toxic
Activity [6]: 0.27%
IC50 [9]: 79 nM
Activity [12]: Active
viability at 2 µM [13]: 65.5%
Activity [15]: Active
Activity [16]: Active
Activity [17]: 18.2%
Activity [18]: 3.15%
Activity [19]: 7.02%
Activity [20]: Dose-Dependent Effect
Activity [22]: Non-Toxic
Activity [24]: 2.92%
Activity [26]: Active
Activity [27]: Non-Toxic
IC50 [29]: < 50 nM
